Reference: PubChem BioAssay (NCI)
Values joined by “and” are separate entries in the source; they are usually repeats but may differ in a detail not shown here. Equal values may be shown once.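 Step 1: Grow cells in 96-well plates. Step 2: Expose to compound for 48 hours at 5 concentrations. Step 3: Interpolate endpoints linearly; if unreached, use highest concentration. GI50 = concentration required for 50% inhibition of growth. At the TGI there is no net growth.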

Assays:
Assay in all cases: NCI tumour cell line growth inhibition, 48 h
SR leukemia = tested on: SR leukemia
HOP-62 NSCLC = tested on: HOP-62 NSCLC
ACHN renal = tested on: ACHN renal
SNB-19 CNS = tested on: SNB-19 CNS
HCT-116 colon = tested on: HCT-116 colon
SF-539 CNS = tested on: SF-539 CNS
NCI-H522 lung = tested on: NCI-H522 lung
HCT-15 colon = tested on: HCT-15 colon
HOP-92 NSCLC = tested on: HOP-92 NSCLC
HCC-2998 colon = tested on: HCC-2998 colon

| Compound | TGI (SR leukemia) [µM] | TGI (HOP-62 NSCLC) [µM] | TGI (ACHN renal) | TGI (SNB-19 CNS) | TGI (HCT-116 colon) [µM] | TGI (SF-539 CNS) | TGI (NCI-H522 lung) [µM] | TGI (HCT-15 colon) [µM] | TGI (HOP-92 NSCLC) [µM] | GI50 (HOP-62 NSCLC) [µM] | GI50 (ACHN renal) [µM] | GI50 (SNB-19 CNS) [µM] | GI50 (HCT-116 colon) [µM] | GI50 (HCC-2998 colon) [µM] | TGI (HCC-2998 colon) [µM] | GI50 (HOP-92 NSCLC) [µM] | GI50 (NCI-H522 lung) [µM] | GI50 (HCT-15 colon) [µM] | GI50 (SF-539 CNS) [µM] | GI50 (SR leukemia) [µM] |
| --- | --- | --- | --- | --- | --- | --- | --- | --- | --- | --- | --- | --- | --- | --- | --- | --- | --- | --- | --- | --- |
| COc1ccc(CC(C)NCC(O)c2ccc(O)c(NC=O)c2)cc1 (configuration not stated) | > 100 | > 100 | > 100 µM | > 100 µM | > 100 | > 100 µM | > 100 | > 100 | – | – | – | – | – | – | – | – | – | – | – | – |
| CCOc1ccc2c(c1)[n+]([O-])c(C(N)=O)c(N)[n+]2[O-] | > 100 | > 100 | > 100 µM | > 100 µM | > 100 | > 100 µM | > 100 | – | > 100 | – | – | – | – | – | – | – | – | – | – | – |
| [Cu].c1ccc2c(c1)C1=NC2=NC2=NC(=NC3=NC(=NC4=NC(=N1)c1ccccc14)c1ccccc13)c1ccccc12 | – | > 100 | > 100 µM | > 100 µM | > 100 | – | > 100 | > 100 | > 100 | > 100 | > 100 | > 100 | > 100 | > 100 | > 100 | > 100 | > 100 | > 100 | – | – |
| CC(C)N1CCOC(c2ccc(O)c(O)c2)C1 (configuration not stated) | – | > 100 | > 100 µM | > 100 µM | – | – | > 100 | > 100 | > 100 | – | – | – | – | – | > 100 | – | – | – | – | – |
| O=C(O)CN(CCN(CC(=O)O)CC(=O)O)CCN(CC(=O)O)CC(=O)O | – | 5.07 | 13.6 µM | 61.6 µM | 12.7 | 7.98 µM | – | 20.9 | 79 | 1.98 | 2.59 | 5.18 | 3.42 | 4.42 | 27 | 11.5 | – | 3.67 | 2.86 | – |
| Nc1nc(N)c2cc(S(=O)(=O)c3cccc(C(F)(F)F)c3)ccc2n1 | – | 34.2 | > 100 µM | > 100 µM | > 100 | > 100 µM | > 100 | > 100 | 38 | 6.43 | 4.43 | 5.44 | 1.47 | 5.03 | > 100 | 3.56 | 3.05 | 3.09 | 6.63 | – |
| CCOC(=O)c1sc2nc(=S)[nH]c(NC(N)=S)c2c1C | 64.7 | 49.7 | 32.8 µM | > 100 µM | – | 25.4 µM | 55 | 39.2 | 37.5 | 21 | 15.7 | 28.1 | – | – | – | 4.58 | 20.7 | 16.7 | 11.9 | 20.9 |
| COc1cc(OC)c(OC)cc1/C=C/c1ccccn1 | – | > 10 | > 10 µM | > 10 µM | > 10 | > 10 µM | > 10 | > 10 | > 10 | – | – | – | – | – | > 10 | – | – | – | – | – |
| CCOc1ccc2c(c1)[n+]([O-])c(-c1ccccc1)c(N)[n+]2[O-] | – | > 100 | > 100 µM | > 100 µM | – | > 100 µM | 32.2 | > 100 | – | – | – | – | – | – | > 100 | – | – | – | – | – |
| O=S(=O)(c1ccccc1)N1CCC1c1ccccc1 (configuration not stated) | – | > 100 | > 100 µM | > 100 µM | > 100 | > 100 µM | > 100 | > 100 | > 100 | – | – | – | – | – | > 100 | – | – | – | – | – |
| Cc1cc[c]([Sb]2[O]C(CO)C(C(O)C(O)C(=O)O)[O]2)cc1 (configuration not stated) | > 100 | > 100 | > 100 µM | > 100 µM | > 100 | – | > 100 | > 100 | > 100 | 45.2 | > 100 | 60.6 | 33.7 | – | – | > 100 | 42.7 | > 100 | – | 47.2 |
| O=C1c2ccccc2C(=O)N1C/C=N/NS(=O)(=O)c1cccc([N+](=O)[O-])c1 | > 100 | > 100 | > 100 µM | > 100 µM | > 100 | > 100 µM | > 100 | > 100 | – | – | – | – | – | – | > 100 | – | – | – | – | – |
| O=c1cc(-c2cccc(Cl)c2)[nH]c2cc3c(cc12)OCO3 | 54.7 | 2.85 | 75 µM and 90.9 µM | 75 µM and 10.2 µM | – | 1.08 µM and 1.56 µM | 2.8 | 2.81 | 21.8 | – | 0.565 | 0.363 | – | – | 4.97 | – | – | – | 0.288 | – |
| CCCCCCCCCCCC(c1ccccc1)[N+](C)(C)C (configuration not stated) | – | 3.07 | 26.1 µM | – | – | – | 1.97 | 37 | 2.86 | 1.52 | 4.93 | – | – | – | – | 1.06 | 0.294 | 14.1 | – | – |
| CCN(CC)CC(C(=O)Nc1c(C)cccc1C)/C(C)=N\NC(=S)NN (configuration not stated) | – | > 100 | > 100 µM | – | > 100 | > 100 µM | > 100 | – | > 100 | – | – | – | – | – | > 100 | – | – | – | – | – |
| Cc1cc2c(cc1Cl)SC(=Nc1ccc(Cl)cc1)N(S(=O)(=O)c1ccc(Br)s1)S2(=O)=O | > 100 | 37.4 | 21.1 µM | 46.4 µM | 27.8 | 9.93 µM | > 100 | 29.7 | 46.1 | 17.8 | 9.05 | 13.7 | 14.7 | – | – | 12.1 | 37.3 | 11.9 | 2.01 | 5.11 |
| COc1ccc(-c2cc(=O)c3c(C)ccnc3[nH]2)cc1 | – | 92.4 | > 100 µM | > 100 µM | 39.4 | 72.2 µM | > 100 | > 100 | – | – | – | – | 6.43 | – | > 100 | – | – | – | – | – |
| NCCNCCNCc1c2ccccc2c(CNCCNCCN)c2ccccc12 | > 100 | > 100 | > 100 µM | – | > 100 | > 100 µM | – | > 100 | 84.1 | – | – | – | – | – | > 100 | – | – | – | – | – |
| CSC(=Nc1ccc([N+](=O)[O-])cc1C#N)NC(=O)c1ccccc1 | > 100 | > 100 | > 100 µM | > 100 µM | > 100 | > 100 µM | – | > 100 | > 100 | – | – | – | – | – | > 100 | – | – | – | – | – |
